Here are results for ten molecules from US12472263B2, “Ophthalmic formulation” (PANOPTES PHARMA GES.M.B.H., priority 2018, dated 2025).

Data set [1] has as its target T1, HSA (human serum albumin) (Homo sapiens, UniProt P02768). As to the kind of experiment: Binding of different pharmaceutically active compounds to albumin, RED assay. In kind it is in vitro ADME. Particulars: 5 h, pH 7.4. The method, then: (§1) For analysis of binding of different pharmaceutically active compounds to HSA (human serum albumin) a rapid equilibrium dialysis (RED) assay from Thermo Scientific™ was conducted. Different pharmaceutically active compounds (in saturated solutions as prepared in Example 1) were applied to the donor side of the device. PBS pH 7.4 was used as acceptor medium. The time required to achieve equilibrium in the dialysis was determined to 5 hours. The formulations were incubated at 23° C. at 300 rpm. The unbound fraction was allowed to permeate through the dialysis membrane into the acceptor buffer chamber. After 5 hours equilibration time, the unbound fraction was determined by analyzing the amount of the active compound in each compartment via LC/MS.
The amount of free compound was calculated according to the equation:
The amount of bound compound is calculated as % bound=100−% free

A short description of data set [2]: Thermodynamic solubility in PBS pH 7.4 and in 5% HSA in PBS. In kind it is physicochemical. The note with it: for solubility thermodynamic: thermodynamic from solid; for Increase in solubility: from PBS to 5% HSA in PBS. The method, then:
The process was initiated by adding 1 mL of defined buffer to about 1 mg of the solid compound. The solutions were mixed for at least 15 hours. If there was no undissolved substance in the solution visible, an additional portion of the solid compound was added and the solution was further mixed for at least 15 hours. This step was repeated until a saturated solution in equilibrium was achieved; excess solid was clearly visible. The total mixing time until equilibrium should exceed 40 hours. After reaching the equilibrium, the solutions were centrifuged for 10 minutes at 14,000 rpm.

Data set [3] can be described thus: PK study in rabbits after topical ocular administration. In kind it is in vivo, New Zealand White rabbits. On the procedure: To confirm that PP-001/albumin formulations deliver sufficient PP-001 to target tissues (i.e. conjunctiva and cornea), a pharmacokinetic study was performed in New Zealand White rabbits.
10 female animals of ca. 3 months age were dosed one drop (35 μL drop size) of the formulation 1 (3 mg/ml PP-001) in both eyes at time point 0. Animals were sacrificed 5 or 30 minutes or 2, 4, or 12 hours after dosing and ocular tissues and plasma were collected. PP-001 concentration in plasma and tissues were determined by a validated HPLC-MS analytical method.

Data set [4] can be described thus: Aqueous solubility in phosphate buffer pH 7.4, without and with 5% albumin. In kind it is physicochemical. Particulars: thermodynamic from solid. The method, then: As used herein, “solubility in aqueous solution of at least X mg/mL” refers to thermodynamic solubility of a compound in an aqueous 50 mM phosphate buffer or phosphate buffered saline (PBS) solution at pH 7.4 at least X mg/mL. PP-001 has a solubility of 0.8 mg/mL in an aqueous phosphate buffer solution at pH 7.4. However, if the aqueous buffer solution comprises 5% albumin PP-001 has solubility of at least 5 mg/mL.

A further data set addresses human serum albumin (Homo sapiens, UniProt P02768). As to the kind of experiment: Binding of PP-001 to albumin, rapid equilibrium dialysis (RED) assay. Format: in vitro ADME. The note with it: PP-001/human serum albumin formulation, pH 7.4; formulation dosed in the rabbit PK study. The method, then:
as §1, with “PP-001” for “different pharmaceutically active compounds”, “PP-001 formulations” for “pharmaceutically active compounds (in saturated solutions as prepared in Example 1)”, “device and 50 mM phosphate buffer” for “device. PBS”, “time” for “time,”, “PP-001” for “the active compound”, “HPLC/DAD.” for “LC/MS.”
(§2) To investigate nonspecific binding of PP-001 to the RED Device Inserts, a solution of 0.05 mg/mL PP-001 in 50 mM phosphate buffer pH 7.4 was used as a control sample. PP-001 concentration in the acceptor compartment was >82% of the concentration in the donor compartment. Only minor non-specific binding of PP-001 to the RED device was determined.
(§3) The amount of free PP-001 was calculated according to the equation:
(§4) The amount of bound PP-001 is calculated as % bound=100−% free
On the technique in general: Equilibrium dialysis compares concentrations on both sides of a semipermeable membrane.

Data set [5] deals with T1, HSA (human serum albumin). Described as above. In kind it is in vitro ADME. The method, then: as §1, with “PP-001” for “different pharmaceutically active compounds”, “PP-001 formulations” for “pharmaceutically active compounds (in saturated solutions as prepared in Example 1)”, “device and 50 mM phosphate buffer” for “device. PBS”, “time” for “time,”, “PP-001” for “the active compound”, “HPLC/DAD.” for “LC/MS.”
as §2, §3, §4

A further data set has as its system uveitis. The note with it: cited from earlier work.
Where [6] appears, read: aqueous buffer, PBS pH 7.4, saturated, LC/MS, read-out: Thermodynamic solubility in PBS pH 7.4.
The mark [7] stands for this setting: plasma or biological fluid, 5% HSA in PBS pH 7.4, saturated, LC/MS, read-out: Thermodynamic solubility in 5% HSA in PBS pH 7.4.

Values after ≈ are worked out from the molar mass of the structure shown. Counter-ions that a name gives are not always drawn. Like-named read-outs stand apart in the source and are kept apart here. Bounds are passed on as bounds.

T1 sequence (P02768 25-609): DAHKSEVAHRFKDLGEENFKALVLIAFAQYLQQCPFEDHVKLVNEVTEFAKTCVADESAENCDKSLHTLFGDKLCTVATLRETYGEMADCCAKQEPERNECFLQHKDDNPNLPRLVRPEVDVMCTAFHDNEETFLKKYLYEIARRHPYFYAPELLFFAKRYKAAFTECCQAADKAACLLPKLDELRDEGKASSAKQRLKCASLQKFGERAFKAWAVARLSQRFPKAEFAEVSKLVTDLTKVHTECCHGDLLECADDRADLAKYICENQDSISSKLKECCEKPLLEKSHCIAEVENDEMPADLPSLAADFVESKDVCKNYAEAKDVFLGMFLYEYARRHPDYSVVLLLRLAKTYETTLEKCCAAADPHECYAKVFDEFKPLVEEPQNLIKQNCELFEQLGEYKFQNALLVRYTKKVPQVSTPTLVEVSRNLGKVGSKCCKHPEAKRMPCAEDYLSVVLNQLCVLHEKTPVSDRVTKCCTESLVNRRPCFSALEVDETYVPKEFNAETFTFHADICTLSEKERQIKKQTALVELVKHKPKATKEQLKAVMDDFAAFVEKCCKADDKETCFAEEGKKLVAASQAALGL
Chain of human serum albumin (P02768 25-609): as above

Consider `CC(=O)O[C@H]1C[C@@]2(C)[C@@H](C[C@@H](O)[C@H]3[C@@]4(C)CC[C@@H](O)[C@@H](C)[C@@H]4CC[C@@]32C)/C1=C(\CCC=C(C)C)C(=O)O` [Fusidic Acid], for which the “% bound” value in data set [1] (isolated protein) came out at 95.7%. The results for the solubility (thermodynamic) in data set [2] (setting [6]) and in data set [2] (setting [7]) were 483 µg/mL (≈ 935 µM) and 1420 µg/mL (≈ 2750 µM), respectively. In data set [2], the Increase in solubility was determined as 195%.
`C[C@@H]1CN([C@H]2CC[C@](C#N)(c3ccc(F)cc3)CC2)CC[C@]1(C(=O)O)c1ccccc1` [Levocabastine HCl]: the “% bound” value in data set [1] (isolated protein) was 75.4%. Moreover, the solubility (thermodynamic) (as a rule, the concentration in solution at equilibrium with solid) in data set [2] (setting [6]) was found to be 3 µg/mL; in data set [2] (setting [7]), 83 µg/mL. Besides, the Increase in solubility was 2,333%^ in data set [2] (HCl) and 2,333% in data set [2] (listed as levocabastine HCl, HCl).
As for `CCNC(=O)CCC/C=C\C[C@@H]1[C@@H](/C=C/[C@@H](O)CCc2ccccc2)[C@H](O)C[C@@H]1O` [Bimatoprost], in data set [1] (isolated protein), the “% bound” value was 77.6%. The thermodynamic solubility in data set [2] (setting [6]) is 1230 µg/mL (≈ 2970 µM); in data set [2] (setting [7]), 3010 µg/mL (≈ 7230 µM). In addition, the Increase in solubility in data set [2] is 144%.
For `CC(=O)OCC(=O)[C@@]1(O)CC[C@H]2[C@@H]3CCC4=CC(=O)C=C[C@]4(C)[C@H]3[C@@H](O)C[C@@]21C` [Prednisolone acetate], the “% bound” value in data set [1] (isolated protein) was 94.3%.
With `CNCC(O)c1ccc(OC(=O)C(C)(C)C)c(OC(=O)C(C)(C)C)c1` (stereo not drawn) [Dipivefrin HCl], in data set [1] (isolated protein), the “% bound” value is 64.8%. Also, the figures for the solubility (thermodynamic) in data set [2] (setting [6]) and in data set [2] (setting [7]) were 2340 µg/mL and 7440 µg/mL, respectively. Moreover, the Increase in solubility in data set [2] is recorded as 218%.
Regarding `NC(=O)Cc1cccc(C(=O)c2ccccc2)c1N` [Nepafenac], the “% bound” value in data set [1] (isolated protein) is 92.1%. Moreover, the values for the solubility (thermodynamic) in data set [2] (setting [6]) and in data set [2] (setting [7]) were 9 µg/mL (≈ 35.4 µM) and 64 µg/mL (≈ 252 µM), respectively. In data set [2], this molecule displayed an Increase in solubility of 619%.
On the same counts, the results for `CCN[C@H]1CN(CCCOC)S(=O)(=O)c2sc(S(N)(=O)=O)cc21` [Brinzolamide] are 70.3%, 273 µg/mL (≈ 712 µM), 387 µg/mL (≈ 1010 µM) and 42%.
With `CN1CCCC(n2nc(Cc3ccc(Cl)cc3)c3ccccc3c2=O)CC1` (stereo not drawn) [Azelastine HCl], the “% bound” value in data set [1] (isolated protein) was found to be 80.9%. Further, the thermodynamic solubility in data set [2] (setting [6]) is 421 µg/mL; in data set [2] (setting [7]), 827 µg/mL. Further, in data set [2], the Increase in solubility is 96%.
Regarding Netarsudil mesylate, the “Thermodynamic solubility in 5% HSA in PBS pH 7.4” value in data set [2] (5% HSA in PBS pH 7.4, saturated, LC/MS) is recorded as 0.140 mg/mL. Besides, the “Thermodynamic solubility in PBS pH 7.4” value in data set [2] (PBS pH 7.4, saturated, LC/MS) was below 0.000051 mg/mL. Moreover, the Increase in solubility in data set [2] is recorded as >10,000%; in data set [2] (listed as netarsudil mesylate), > 274,763%.
As for `O=C(Nc1c(F)c(F)c(-c2cccc(OC(F)(F)F)c2)c(F)c1F)c1ccsc1C(=O)O` [PP-001, 3-(2,3,5,6-tetrafluoro-3′-trifluoromethoxy-biphenyl-4-ylcarbamoyl)-thiophene-2-carboxylic acid], the Cmax (in general, the peak of the concentration-time curve) in data set [3] (female, New Zealand White, rabbit, plasma, topical, 35 μL drop of 3 mg/ml per eye, one 35 μL drop of formulation 1 (3 mg/ml PP-001) in both eyes) is below 9 ng/mL. Further, the “absorption of PP-001 by ocular tissues (conjunctiva, cornea)” value in data set [3] (one 35 μL drop of formulation 1 (3 mg/ml PP-001) in both eyes) was “substantial amounts of PP-001 are absorbed by ocular tissues”. Also, the “persistence in the cornea” value in data set [3] (one 35 μL drop of formulation 1 (3 mg/ml PP-001), up to 12 hours after dosing) is “highly persistent in the cornea”. For the same molecule, the “% bound” value in data set [1] is on record as around 100%; in data set [1] (isolated protein) it was 99.9%. Besides, the solubility (usually the concentration that dissolves in the medium under given conditions) was at least 5000 µg/mL in data set [4] (aqueous buffer with 5% albumin, aqueous with cosolvent or surfactant or cyclodextrin, buffer pH 7.4 with 5% albumin, read-out: solubility in aqueous buffer solution comprising 5% albumin) and 800 µg/mL (≈ 1670 µM) in data set [4] (aqueous phosphate buffer, aqueous buffer, phosphate buffer pH 7.4, read-out: aqueous solubility in phosphate buffer pH 7.4). The fraction unbound – broadly, free concentration divided by total concentration – at 5 h, 3 mg/ml on human serum albumin was below 0.05. Also, in data set [5] (0.05 mg/mL PP-001 in 50 mM phosphate buffer pH 7.4, no albumin), the “PP-001 concentration in the acceptor compartment as % of the donor compartment (nonspecific binding control)” value is above 82%. The “binding of PP-001 to albumin (in words)” value in data set [5] (even at high PP-001 concentrations) is recorded as “nearly completely bound to albumin”. In the data set on uveitis (therapeutic approach), the “relapses of experimental autoimmune uveitis” value is “prevents relapses”. Moreover, the “clinical and histological symptoms of uveitis” value in the data set on uveitis (two different rat models for uveitis) is “completely ameliorates clinical and histological symptoms”. For the same molecule, the solubility (thermodynamic) was 48 µg/mL (≈ 100 µM) in data set [2] (setting [6]) and 2910 µg/mL (≈ 6070 µM) in data set [2] (setting [7]).
